# According to patent US20140017223A1, “Pharmaceutical Compositions Comprising A Pancreatic Enzyme Preparation With Viral Infectivity Reduced Below A Significant Level And Methods Of Preparing And Using The Same” (Aptalis Pharma Canada Inc., priority 2010, published 2014):
# Key:
# Endogenous PPV = test: Inactivation of endogenous PPV of PEP by BPL, chloroform/PEG extraction method (Example 4); assay type: cell-based, porcine parvovirus (PPV); details: for Detected PPV Titer: 0*=below detection limit of 63 FFID50/g PEP
# Procedure: Pancrelipase powders from 2 different lots were each dissolved in 100 mM Tris, pH=8.3, at a concentration of 100 mg/ml. Two ml non-purified PPV viral stock (prepared using standard protocols (Arella et al., Physicichemical properties, production, and purification of parvoviruses. 1990, In Tijssen, P. (ed.), CRC handbook of parvoviruses. Boca Raton, Fla.: CRC Press, 11-30)) were added to 38 ml of the pancrelipase solution. The virus was mixed with the PEP using slow shaking at room temperature for one day. Aliquots were taken from the PPV-spiked pancrelipase stocks and each was incubated with different concentrations of BPL (available from Sigma-Aldrich, St. Louis, Mo.) (except the control) for 48 hours at room temperature (20° C.). The level of viral inactivation was measured by the titration of PPV infectivity using serial dilutions of 1,000 times or more since the titer of spiked virus was high. Determination of the FFID50 was performed using the fluorescence assay as described in the PPV FFID-infectivity assay of U.S. Patent Publication No. 2009/0226414.
# The experiment described in Example 1 was repeated except no additional PPV was added. Like Example 3, the infectivity assay was performed after PEG/chloroform purification.
# PPV = test: Inactivation of PPV by BPL (30 min, 25° C.) measured from frozen and lyophilized samples (Example 10); assay type: cell-based, porcine parvovirus (PPV)
# Procedure: 4.5 g pancrelipase (PEP) powder was dissolved in 44 ml ice cold 100 mM Tris (pH=8.3) by frequently mixing a 50-ml plastic tube that was kept on ice most of the time except when shaking. The dissolved sample was spiked with 1 ml (2×0.5 ml) PPV stock (prepared at the Institut National de la Recherche Scientifique, Québec, Canada using standard protocols (Arella et al., Physicichemical properties, production, and purification of parvoviruses. 1990, In Tijssen, P. (ed.), CRC handbook of parvoviruses. Boca Raton, Fla.: CRC Press, 11-30)) 10^7 FFID50/ml; see Example 8 and Table 8) and was mixed for another 10 minutes.
# Three aliquots of the dissolved pancrelipase were transferred into tubes (A-C) and kept on ice while (A) no BPL—the control), (B) (0.4 vol % BPL), or (C) (0.8 vol % BPL) was added to them. After a brief mixing by a vortex machine, the tubes were incubated for 30 minutes at 25° C. At the end of the incubation, the tubes were transferred on to ice and immediately four aliquots were transferred from each experimental condition into new tubes (a-d). These tubes were placed into the mixture of acetone/dry ice for fast freezing. Later, the samples were stored at −80° C.
# The experiment above was repeated two more times (altogether: experiments 1-3).
# The frozen samples were lyophilized at −45° C. for two days, and the pancrelipase powders were kept at 4-10° C. Samples a-b from all the experiments were dissolved in water. Infectivity measurements were done with diluted samples using the 400 times diluted samples as the lowest dilution step to determine the FFID50. To easily compare the results for the different experiments, all of the obtained infectivity data were converted to specific infectivity (FFID50/gram PEP). See Example 10 and Table 10.
# Inactivation results for PEP samples containing PPV inactivated by BPL at 25° C. for 30 min which was subsequently inactivated by freezing followed by lyophilization are presented in Table 10.
# lipase = test: Lipase activity of pancrelipase after BPL treatment, freezing and lyophilization (USP 31 method); assay type: biochemical; details: for Loss of Lipase Activity: pancrelipase, freezing, lyophilization, precision 5-10%
# Procedure: Enzymatic activity for the enzymes of a PEP (e.g., proteases, lipases, and amylases) can be determined, for example, by using the United States Pharmacopeia (USP) monographed methods (The United States Pharmacopeia and the National Formulary (USP 31/NF 26). 2008. Rockville (MD): United States Pharmacopeial Convention, Inc.).
# The samples c-d from all the experiments were tested for lipase, protease, and amylase enzymatic activity using USP 31 monographed methods. See Example 11 and Table 11.
# Table 11 presents the lipase, protease, and amylase activity for aliquots of the pancrelipase after BPL treatment for 30 min at 25° C. followed by freezing and lyophilization (same treatment as for samples in Example 10).
# [1] = PEP # 1, endogenous PPV 3.20 × 10^3, 0.10% (v/v) BPL
# [2] = PEP # 1, endogenous PPV 3.20 × 10^3, 0.25% (v/v) BPL
# [3] = PEP # 2, endogenous PPV 0.10 × 10^3, 0.04% (v/v) BPL
# [4] = PEP # 2, endogenous PPV 0.10 × 10^3, 0.10% (v/v) BPL
# [5] = PEP # 2, endogenous PPV 0.10 × 10^3, 0.25% (v/v) BPL
# [6] = PEP # 3, endogenous PPV 6.40 × 10^3, 0.10% (v/v) BPL
# [7] = PEP # 3, endogenous PPV 6.40 × 10^3, 0.25% (v/v) BPL
# [8] = PEP # 4, endogenous PPV 0.20 × 10^3, 0.04% (v/v) BPL
# [9] = PEP # 4, endogenous PPV 0.20 × 10^3, 0.10% (v/v) BPL
# [10] = PEP # 4, endogenous PPV 0.20 × 10^3, 0.25% (v/v) BPL
smiles,measurement,setting,value
"O=C1CCO1 [BPL, Beta-propiolactone]",Detected PPV Titer,"Endogenous PPV; PEP # 1, endogenous PPV 3.20 × 10^3, 0.04% (v/v) BPL",0.50 × 10^2 FFID50/g
same,PPV Titer reduction,Endogenous PPV; [1],10^3 FFID50/g
same,Detected PPV Titer,Endogenous PPV; [1],< 0* FFID50/g
same,PPV Titer reduction,Endogenous PPV; [2],10^3 FFID50/g
same,Detected PPV Titer,Endogenous PPV; [2],< 0* FFID50/g
same,PPV Titer reduction,Endogenous PPV; [3],10^3 FFID50/g
same,Detected PPV Titer,Endogenous PPV; [3],< 0* FFID50/g
same,PPV Titer reduction,Endogenous PPV; [4],10^3 FFID50/g
same,Detected PPV Titer,Endogenous PPV; [4],< 0* FFID50/g
same,PPV Titer reduction,Endogenous PPV; [5],10^3 FFID50/g
same,Detected PPV Titer,Endogenous PPV; [5],< 0* FFID50/g
same,Detected PPV Titer,"Endogenous PPV; PEP # 3, endogenous PPV 6.40 × 10^3, 0.04% (v/v) BPL",4.00 × 10^2 FFID50/g
same,PPV Titer reduction,Endogenous PPV; [6],10^3 FFID50/g
same,Detected PPV Titer,Endogenous PPV; [6],0.07 × 10^2 FFID50/g
same,PPV Titer reduction,Endogenous PPV; [7],10^3 FFID50/g
same,Detected PPV Titer,Endogenous PPV; [7],< 0* FFID50/g
same,PPV Titer reduction,Endogenous PPV; [8],10^3 FFID50/g
same,Detected PPV Titer,Endogenous PPV; [8],< 0* FFID50/g
same,PPV Titer reduction,Endogenous PPV; [9],10^3 FFID50/g
same,Detected PPV Titer,Endogenous PPV; [9],< 0* FFID50/g
same,PPV Titer reduction,Endogenous PPV; [10],10^3 FFID50/g
same,Detected PPV Titer,Endogenous PPV; [10],< 0* FFID50/g
same,Reduction of PPV titer,PPV; 0.4% BPL,0.27 × 10^3 FFID50/g
same,Reduction of PPV titer,PPV; 0.8% BPL,1.55 × 10^6 FFID50/g
same,Average Results (per sample a/b),"PPV; 0.8% BPL, 0* means under detection limit",< 0* FFID50/g
same,Average Results (per experiment),"PPV; 0.8% BPL, experiments C1-C3, 0* means under detection limit",< 0* FFID50/g
same,PPV infectivity (single determinations),"PPV; 0.8% BPL, samples C1a-C3b, 0* means under detection limit",< 0* FFID50/g
same,Lipase activity maintained,lipase; lyophilized samples treated with 0.4% BPL and 0.8% BPL,maintained the majority
same,Loss of Lipase Activity,lipase; 0.4% BPL 30 min 25° C.,19.79%
same,Loss of Lipase Activity,lipase; 0.8% BPL 30 min 25° C.,26.40%
